Test system: mitochondria or chloroplast of Chlamydomonas reinhardtii
Assay: Subcellular localization of Venus reporter by epifluorescence microscopy (manual targeting assignment)
Assay type: cell-based
Details: for targeting when combining cTP-N with mTP-C (^cP^m): Figure 2; for targeting when combining cTP-N with mTP-C (^cP^m) / chloroplast targeting upon addition of cTP-C (P^c): bare name = K and R versions; for chloroplast targeting upon addition of cTP-C (P^c): C-terminal element of RCA1-cTP added to the named peptide, Figure 2 rows E and F
Summary of the method: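 Targeting peptide variants fused to Venus reporter, transformed into Chlamydomonas wild-type T222+ (CC-5101); three independent transformant lines per construct. Localization assigned manually from epifluorescence images using chlorophyll autofluorescence for chloroplast and 0.1 μM MitoTracker Red CMXRos (30 min) for mitochondria. Automated segmentation used for validation.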

[1] = targeting of the Venus reporter fused to the peptide, expressed in Chlamydomonas reinhardtii, manual assignment from epifluorescence microscopy, full or partial
[2] = peptide-Venus reporter construct expressed in Chlamydomonas reinhardtii, manual targeting assignment (Neither / Mitochondria / Chloroplast / Dual; partial = partial targeting)
[3] = manual targeting assignment of the Venus reporter construct in Chlamydomonas: Neither / Mitochondria / Chloroplast / Dual, (partial) = partial targeting

Sequence	Localisation [2]	Localisation [3]	other results
MQVTMKSSAVSGQRVFLPLLAGLAANFLPRIFCRITRRCLTQTAESFRGVSSQFFDAPNGPSVKQVLIEDEW [c.B1E.R.m]			Localisation [1]: Dual
MQVTMKSSAVSGQRVMWLSRTARRLENSARRRISEGIAIAIRGGSRSVRRAQLQVVASSRKQMGRWRSIDAGVDASDDQ [c.CP3.R.c]	Chloroplast		
MRYYGNGVSCNRRGCSVDWGRAIGIIGNNAAANLTTGGRAGWRG [EHF.R]		Neither	
GLFSKFNKKKIKSGLIKIIKTAGKEAGLEALRTGIDVIGCKIKGEC [E1S, esculentin-1SEA, HA-RAMP antimicrobial peptide, reference compound]			targeting when combining cTP-N with mTP-C (^cP^m): chloroplast targeting
MGKIPVKAIKKAGAAIGKGLRAINIASTAHDVYSFFKPKHKKK [SIM.K]			Localisation [1]: Neither
MFLPLLAGLAANFLPRIFCRITRRCLTQTAESFRGVSSQFFDAPNGPSVKQVLIEDEW [B1E.R.m]	Neither		
MQVTMKSSAVSGQRVGRIPVRAIRRAGAAIGRGLRAINIASTAHDVYSFFRPRHRRRLTQTAESFRGVSSQFFDAPNGPSVKQVLIEDEW [c.SIM.R.m]		Chloroplast	
MVNYGNGVSCSKTKCSVNWGIITHQAFRVTSGVASGSVRRAQLQVVASSRKQMGRWRSIDAGVDASDDQ [B15.K.c]	Chloroplast		
MGIGKFLHSAKKFGKAFVGEIMNSSVRRAQLQVVASSRKQMGRWRSIDAGVDASDDQ [MII.K.c]	Mitochondria		
MQVTMKSSAVSGQRVSFLTTFRDLAIRAARSAGQSVLSTLSCRLSNTC [c.B2I.R]		Mitochondria (partial)	
MQVTMKSSAVSGQRVMVNYGNGVSCSKTKCSVNWGIITHQAFRVTSGVASG [c.B15.K]	Neither		
MQVTMKSSAVSGQRVMWLSRTARRLENSARRRISEGIAIAIRGGSRLTQTAESFRGVSSQFFDAPNGPSVKQVLIEDEW [c.CP3.R.m]			Localisation [1]: Neither
MGIGRFLHSARRFGRAFVGEIMNSLTQTAESFRGVSSQFFDAPNGPSVKQVLIEDEW [MII.R.m]	Mitochondria (partial)		
MGWIRDFGKRIERVGQHTRDATIQTIAVAQQAANVAATLKGSVRRAQLQVVASSRKQMGRWRSIDAGVDASDDQ [S1D.K.c]			Localisation [1]: Chloroplast
MALWKTMLKKLGTMALHAGKAAFGAAADTISQ [DDM.K]			Localisation [1]: Neither
MWLSKTAKKLENSAKKRISEGIAIAIKGGSRLTQTAESFRGVSSQFFDAPNGPSVKQVLIEDEW [CP3.K.m]	Neither		
MFLPLLAGLAANFLPRIFCRITRRCSVRRAQLQVVASSRKQMGRWRSIDAGVDASDDQ [B1E.R.c]	Neither		
MDEVNNDNCRIRFRGDISSESDRMNINYSVRRAQLQVVASSRKQMGRWRSIDAGVDASDDQ [RP2.R.c]		Neither	
MWLSRTARRLENSARRRISEGIAIAIRGGSR [CP3.R]	Mitochondria (partial)		
MQVTMKSSAVSGQRVALWMTLLRRVLRAAARAALNAVLVGANASVRRAQLQVVASSRKQMGRWRSIDAGVDASDDQ [c.DS4.R.c]			Localisation [1]: Neither
MQVTMKSSAVSGQKVGGAKVATKSVKKAQLQVVASSKKQMGKWKSIDAGVDASDDQ [c.CH.K.c]		Chloroplast (partial)	
KYYGNGVHCTKSGCSVNWGEAFSAGVHRLANGGNGFW [LCA, leucocin A, HA-RAMP antimicrobial peptide, reference compound]			chloroplast targeting upon addition of cTP-C (P^c): enabled chloroplast targeting; chloroplast targeting upon addition of cTP-C (P^c) (listed as LCAK): Gain of partial chloroplast targeting; targeting when combining cTP-N with mTP-C (^cP^m): chloroplast targeting
MQVTMKSSAVSGQRVALWRTMLRRLGTMALHAGRAAFGAAADTISQLTQTAESFRGVSSQFFDAPNGPSVKQVLIEDEW [c.DDM.R.m]		Neither	
MQVTMKSSAVSGQRVGIGKFLHSAKKFGKAFVGEIMNS [c.MII.K]	Mitochondria		
MQVTMKSSAVSGQRVGGARVATRLTQTAESFRGVSSQFFDAPNGPSVKQVLIEDEW [c.CH.R.m]		Neither	

Sequence	Localisation [2]	Localisation [3]	other results
MWLSKTAKKLENSAKKRISEGIAIAIKGGSR [CP3.K]	Neither		
MQVTMKSSAVSGQRVMLKKVGQSLVPFAKAGLTQTAESFKGVSSQFFDAPNGPSVKQVLIEDEW [c.MH.K.m]		Neither	
MFLPLLAGLAANFLPKIFCKITRKC [B1E.K]	Neither		
MQVTMKSSAVSGQRVFLPLLAGLAANFLPKIFCKITRKCSVRRAQLQVVASSRKQMGRWRSIDAGVDASDDQ [c.B1E.K.c]	Chloroplast		
MQVTMKSSAVSGQRV [c.-]			Localisation [1]: Neither
MQVTMKSSAVSGQRVMVNYGNGVSCSKTKCSVNWGIITHQAFRVTSGVASGSVRRAQLQVVASSRKQMGRWRSIDAGVDASDDQ [c.B15.K.c]	Chloroplast		
MNIVVYWNFTLWHMDINARNAGCDGEGS [RP1.K]			Localisation [1]: Neither
MLKKVGQSLVPFAKAGSVRRAQLQVVASSRKQMGRWRSIDAGVDASDDQ [MH.K.c]		Dual	
MQVTMKSSAVSGQRVNIVVYWNFTLWHMDINARNAGCDGEGS [c.RP1.K]			Localisation [1]: Neither
MSFLTTFKDLAIKAAKSAGQSVLSTLSCKLSNTCSVRRAQLQVVASSRKQMGRWRSIDAGVDASDDQ [B2I.K.c]			Localisation [1]: Mitochondria
MQVTMKSSAVSGQRVMKYYGNGVHCTKSGCSVNWGEAFSAGVHRLANGGNGFWLTQTAESFRGVSSQFFDAPNGPSVKQVLIEDEW [c.LCA.K.m]	Chloroplast		
MQVTMKSSAVSGQRVDEVNNDNCRIRFRGDISSESDRMNINYSVRRAQLQVVASSRKQMGRWRSIDAGVDASDDQ [c.RP2.R.c]		Neither	
MQVTMKSSAVSGQRVDEVNNDNCRIRFRGDISSESDRMNINY [c.RP2.R]		Neither	
MQVTMKSSAVSGQRVMGLLLDTLRGAARDIAGIALERLRCRITGCRP [c.R2G.R]		Mitochondria	
MQVTMKSSAVSGQRVMGKIPVKAIKKAGAAIGKGLRAINIASTAHDVYSFFKPKHKKKLTQTAESFRGVSSQFFDAPNGPSVKQVLIEDEW [c.SIM.K.m]			Localisation [1]: Chloroplast
MQVTMKSSAVSGQRVMGWIRDFGRRIERVGQHTRDATIQTIAVAQQAANVAATLRGLTQTAESFRGVSSQFFDAPNGPSVKQVLIEDEW [c.S1D.R.m]		Dual	
MQVTMKSSAVSGQRVALWRTMLRRLGTMALHAGRAAFGAAADTISQSVRRAQLQVVASSRKQMGRWRSIDAGVDASDDQ [c.DDM.R.c]		Chloroplast	
MQVTMKSSAVSGQRVDEVNNDNCRIKFKGDISSESDKMNINY [c.RP2.K]			Localisation [1]: Neither
MQVTMKSSAVSGQRVMSFLTTFKDLAIKAAKSAGQSVLSTLSCKLSNTCSVRRAQLQVVASSRKQMGRWRSIDAGVDASDDQ [c.B2I.K.c]			Localisation [1]: Chloroplast (partial)
MQVTMKSSAVSGQRVMVNYGNGVSCSRTRCSVNWGIITHQAFRVTSGVASG [c.B15.R]	Chloroplast		
MQVTMKSSAVSGQRVMLKKVGQSLVPFAKAG [c.MH.K]		Neither	
MQVTMKSSAVSGQRVMGLLLDTLKGAAKDIAGIALEKLKCKITGCKP [c.R2G.K]			Localisation [1]: Mitochondria (partial)
MQVTMKSSAVSGQRVMGLLLDTLRGAARDIAGIALERLRCRITGCRPSVRRAQLQVVASSRKQMGRWRSIDAGVDASDDQ [c.R2G.R.c]		Dual	
MQVTMKSSAVSGQKVGGAKVATK [c.CH.K]		Neither	
